These results are taken from US12163156B2, “Cell induction method” (INSTITUTE OF ZOOLOGY, CHINESE ACADEMY OF SCIENCES, priority 2018, dated 2024).

Series [1] concerns human embryonic hepatocytes. Nature of the series: In vitro amplification of human embryonic hepatocytes. It is filed as cell-based. Particulars: for cells amplified (multiple): 12 days subculturing (3 generations in total). The method, then:
(1) Coating the plate. The cell culture plate is coated with rat tail tendon collagen (Thermo scientific, A1048301, 3 mg/mL) at a concentration of […]. Taking a 24-well plate as an example, the bottom area of each hole is 1.9 cm^2, and […] is needed per well (about 3.2 μl); 3.2 μl of rat tail tendon collagen is dissolved in 500 μl of 20 mM glacial acetic acid, adding to the well to incubate in cell culture incubator at 37° C. for 1 h, and after aspirating and abandoning the solution, washing with PBS for 3 times.
(2) Resuscitation of human embryonic hepatocytes. Human embryonic hepatocytes are taken out from liquid nitrogen tanks (freezing date: Jan. 15, 2014; freezing medium: cell banker 2; the number of frozen cells: 2×10^7/tube), quickly placing in a 37° C. water bath, immediately after thawing the cells are sucked into a 15 mL centrifuge tube containing 5 mL of hepatocyte medium (control group), then centrifuging at 50 g, 4° C. for 5 min. The supernatant is discarded, then the cells are resuspended in 500 μl of hepatocyte medium with the number of 1.16×10^6 cells, and the cell resuscitation rate is 5.8%.
(3) Seeding the human embryonic hepatocytes. […] After hepatocyte medium containing 10 μM small molecule (−)-Blebbistatin, and hepatocyte medium containing 20 μM small molecule (−)-Blebbistatin hepatocyte medium are respectively seeded 24 h, for each group the digested cells from 3 wells are counted to calculate the cell attachment rate. After seeding for 72 h, for each group 3 wells of cells are digested and counted. […] A portion of the cells per well (⅖ of the cells counted) are taken for RNA extraction to detect the expression of human hepatocyte-associated genes.
(4) The first passage of human embryonic hepatocytes. […] A portion of the cells per well (⅖ of the cells counted) are taken for RNA extraction to detect the expression of human hepatocyte-associated genes.
(5) The second passage of human embryonic hepatocytes. […] The medium is changed every 2 days, and after continuing to culture for 144 h (6 days), the cells are digested and counted. […]

Another series has as its system ICR female mice. The series is described as follows: In vivo experiment: ventral fat content after injection into the ventral side of mice. The arrangement: species or system mouse. The settings on record: 0.5 mg/kg injected into the ventral side once a day; for ventral fat content: 19 days, drug stopped for 32 days, vs DMSO group. The method, then:
In vivo experiment: the same batch of 6-8 week-old ICR female mice are selected and randomly divided into two groups, 5 in each group. As to one group, small molecule (−)-Blebbistatin or (S)-(−)-Blebbistatin O-Benzoate (0.5 mg/kg, dissolved in 10% DMSO+2% Tween 80+normal saline) is injected into the ventral side of the mice; as to the other group, the same amount of DMSO as the small molecule group is injected in the same way as the experimental group. The injection is performed once a day, 19 days after the injection, and the drug is stopped for 32 days. The mice are sacrificed by cervical dislocation, and the ventral fat content is observed.

The next series has as its system adult hepatocytes. The series is described as follows: Small molecule amplification of adult hepatocytes. It is filed as cell-based, human. Particulars: for number of cells after 6 days of culturing: control group 1.59×10^4. On the procedure:
(1) The method for coating the plate is as described above.
(2) Resuscitation and culture of adult hepatocytes. Adult hepatocytes (M00995-P […] human, Bioreclamation IVT) are taken out from a liquid nitrogen tank, then quickly placing in a 37° C. water bath, after thawing the cells are added to 5 mL of 37° C. pre-heated hepatocyte inoculation medium (InVitroGRO CP Medium), after counting the cells are inoculated in a 24-well plate at the density of 9×10^4/well, 2-4 h after hepatocyte adherence, aspirating and abandoning the hepatocyte inoculation medium, and respectively adding hepatocyte culture control medium, 10 μm small molecule medium, and 20 μm small molecule medium. The media are changed every 2 days. The number of cells is estimated from the photograph on day 2. After 4 days, the cells of the 20 μm small molecule medium group are changed to culture in 10 μm small molecule medium. The cells are counted after co-culturing for 6 days. A portion of the cells are taken for RNA extraction to detect the expression of human hepatocyte-specific genes.
(3) Passage of adult hepatocytes. 4.7×10^4 of the hepatocytes cultured in the above-mentioned control group, and 8×10^4 of the hepatocytes cultured 10 μm small-molecule medium are respectively re-inoculated into the 24-well plates coated with rat tail tendon collagen, and the media are changed every two days. After 6 days, photos are taken to record cell growth.

For series [2], the system named is mouse adult primary hepatocytes. The series is described as follows: In vitro amplification of mouse adult primary hepatocytes (Alb-GFP).
Source text: Alb-Cre mice are introduced from BRL Medicine, Cre recombinase is only expressed in mature hepatocytes expressing albumin; Rosa26/mTmG mice are introduced from Charles River, and a red and green fluorescence reporter system is incorporated into the Rosa26 locus of this kind of mouse; normally a tomato red fluorescent protein is expressed in the cells, while in the case of Cre recombination it is changed to express a green fluorescent protein (GFP). Alb-Cre adult mice are hybridizedwith Rosa26/mTmG mice to obtain offspring Alb-Cre×Rosa26/mTmG mice, and mature hepatocytes of the offspring are labeled green, and other tissue cells present the red fluorescent.
Alb-Cre×Rosa26/mTmG adult mice are sacrificed by cervical dislocation, taking out the hepatic lobes, cutting into small pieces, blowing and washing repeatedly with 100 volumes of pre-cooled PBS to remove the blood cells until the washing solution is not red; adding 3-5 volumes of collagenase IV (ThermoFisher, 17104019, preheated at 37° C.) to digest in incubator at 37° C. for 30-40 min, and blowing 2-3 times during the digestion, then centrifuging and removing the supernatant. […] The mouse hepatocyte medium comprises: DMEM/F12 (gibco, 10565018), adding N2 additive (100×, Gibco, 17502048), B27 additive (50×, Gibco, 17504044), 5% bovine serum albumin (1000×, Sigma, A8022), β-mercaptoethanol (1000×, Gibco, 21985023), GlutaMAX (200×, Gibco, 35050-061), non-essential amino acids (100×, Gibco, 11140-050), 1 μg/mL insulin (Roche, 11376497001), hepatocyte growth factor (10 ng/mL, R&D, 294-HG-025), transforming growth factor β inhibitor A83-01 (5 μm, stemgent, 04-0014), glycogen synthase kinase 3β inhibitor Chir99021 (6 μM, stemgent, 04-0004-10), macrophage stimulating protein 1 and 2 inhibitor XMU-MP-1 (2-5 μM, MCE, HY-100526) fibroblast growth factor 4 (10 ng/mL, R&D, 5846-f4-025), double antibiotics.
Without addition of Myosin II inhibitor (−)-Blebbistatin or (S)-(−)-Blebbistatin O-Benzoate, an equal volume of DMSO is added as a control, and the cells are respectively subcultured 3 times (P3), 5 times (P5), and seven times (P7).
The subject of series [3] is Mouse embryonic fibroblasts. The series is described as follows: Transdifferentiation of mouse embryonic fibroblasts into adipocytes, oil red O staining. It is filed as cell-based. The settings on record: 10 μM added to the original adipocyte induction medium (Myosin inhibitor + BMP4); P<0.001. On the procedure:
Taking a 12-well plate as an example (coming, 3335), for each well, preparing 20 μg/ml Matrigel solution (BD, 354277) with 1×DMEM and coating for 12 hours; then the coating solution is removed, washing with 1×PBS. Mouse embryonic fibroblasts (C57, prepared by E13.5) or adult foreskin fibroblasts (HFF20y, Beijing Stem Cell Bank) are uniformly seeded in each well, 1×10^4 cells per well; incubating in basic medium (high glucose DMEM (Gibco, C12430500BT), double antibiotics) added with 10% fetal bovine serum (Gibco, 16000-044) for 24 hours. The medium is removed, then washing with PBS. […] The identification of adipocytes is performed by oil red staining of cells, oil red O staining solution (cell-specific, Solarbio, […]) is used, and the details are as follows: removing the medium, adding ORO Fixative to fix for 10-15 min, removing the ORO Fixative, and placing in flowing air for 10-15 min. At this time, ORO Stain is prepared in a ratio of ORO Stain A:ORO Stain B=3:2, standing for 10 min after mixing, then adding to the well; the staining solution is removed after dip dyeing for 15 min, adding 60% isopropanol to rinse for 20-30 s, and washing with distilled water for 3 times, then taking photos under an optical microscope. The neutral fats are orange-red or orange-colored, and the phospholipids are pink.

The test system of another series is CYP1A2 gene. Nature of the series: CYP1A2 gene induction with omeprazole in small molecule-amplified adult hepatocytes. It is filed as cell-based, human. Particulars: 50 μm omeprazole in 10 μm small molecule medium, 48 hours, vs DMSO. On the procedure:
(4) 10CYP1A2 adult hepatocytes amplified in 10 μm small medium. 3×10^5 hepatocytes are induced and inoculated in a 24-well plate coated with rat tail tendon collagen, after culturing in a 10 μm small molecule medium for 24 h, then replacing the medium with a 10 μm small molecule medium with 50 μm omeprazole, the control group is a 10 μm small molecule medium containing DMSO, and 48 hours later the cells are collected to detect the expression of the CYP1A2 gene.

`Cc1ccc2c(c1)C(=O)C1(O)CCN(c3ccccc3)C1=N2` (single isomer, unassigned; (-)) [(−)-Blebbistatin]: the “human hepatocyte-specific genes albumin and alpha-fetoprotein expression” value in series [1] (10 μM and 20 μM small molecule media, 12 days subculturing, real-time quantitative PCR) is “still expressed”. Further, the “cells amplified (multiple)” value in series [1] (10 μM small molecule medium) was “about 22.1 times”; in series [1] (20 μM small molecule medium) it was “about 13.0 times”. Moreover, the results for the “ventral fat content” value in the series with ICR female mice and in the series on ICR female mice (listed as Ble) were “significantly increase” and “significant increase”, respectively. The “number of cells after 6 days of culturing” value in the series with adult hepatocytes (10 μm group) is on record as 6.47×10^4 (SD=1.24); with adult hepatocytes (# group: 20 μm for 4 days then 10 μm for 2 days) it was 9.47×10^4 (SD=0.98). Further, the “subculture of human hepatocytes” value with adult hepatocytes (10 μm small molecule medium, control medium cannot) is given as “can make human hepatocytes subculture”. In addition, in the series on adult hepatocytes (adult hepatocytes amplified with small molecules), the “expression of human hepatocyte specific genes albumin, AFP, CYP1A2, CYP3A4” value was “still express”. Further, the “expression of the proliferating cell nuclear antigen (PCNA) gene” value in the series on adult hepatocytes (small molecule group vs control group) is reported as “significantly higher”. For the same molecule, the “amplification effect on adult hepatocytes (cell number day 6 / day 2)” value with adult hepatocytes (small molecule groups vs control) is recorded as “significant amplification effect”. Besides, in series [2] (5 μM in mouse hepatocyte medium, fibronectin-coated dish, one week), the “hepatocyte clusters with Alb expression” value is on record as “green hepatocyte clusters with Alb expression are observed”. Moreover, in series [2] (mouse hepatocytes in medium with Myosin inhibitor), the subculturing in vitro result was “at least 20 generations”. Further, the “long-term amplification of AlB-GFP-positive hepatocytes” value in series [2] (vs DMSO control, subcultured P3, P5, P7) was “significantly promotes”.
On to `Cc1ccc2c(c1)C(=O)[C@]1(OC(=O)c3ccccc3)CCN(c3ccccc3)C1=N2` [(S)-(−)-Blebbistatin O-Benzoate], for which the “ventral fat content increase” value with ICR female mice (without optimization) is “about 50%”. Besides, the passaged in vitro result in series [2] (treated mouse hepatocytes) was “more than 20 times”.
For `Cc1cccc(-c2nn(C(=S)Nc3ccccc3)cc2-c2ccnc3ccccc23)n1` [A83-01], the adipocyte induction efficiency entry in series [3] is given as “up to 20%”.
Consider `NC(=O)c1ccc(-c2nc(-c3ccc4c(c3)OCO4)c(-c3ccccn3)[nH]2)cc1` [SB431542], for which the adipocyte induction efficiency in series [3] was 18%.
Take `COc1ccc2[nH]c([S+]([O-])Cc3ncc(C)c(OC)c3C)nc2c1` (stereo not shown) [omeprazole]: the “expression of CYP1A2 gene” value with CYP1A2 gene is recorded as “can be increased”.
